The values that follow come from ChEMBL document CHEMBL3137381, “MMV Box Onchocerca lienalis screening set”.

Holding throughout (type): functional
In test [1] the test system is Onchocerca lienalis. The test is described as follows: MMV: Percent motility assay at a compound concentration of 7.8e-7 M. Activity score legend: 3: Active, 2: Moderately active; 1: Inactive, 0: Toxic. As to conditions: at 0.78 µM.
For test [2], the system named is Onchocerca lienalis. In words: MMV: Percent motility assay at a compound concentration of 3.1e-6 M. Activity score legend: 3: Active, 2: Moderately active; 1: Inactive, 0: Toxic. Conditions: at 3.1 µM.
The test system of test [3] is Onchocerca lienalis. In words: MMV: Percent motility assay at a compound concentration of 1.25e-5 M. Activity score legend: 3: Active, 2: Moderately active; 1: Inactive, 0: Toxic. Conditions: at 12.5 µM.
The subject of test [4] is Onchocerca lienalis. In words: MMV: Percent motility assay at a compound concentration of 1.9e-7 M. Activity score legend: 3: Active, 2: Moderately active; 1: Inactive, 0: Toxic. As to conditions: at 0.19 µM.

Take `COc1cccc(Cn2c(Oc3ccccc3)nc3c2c(=O)n(C)c(=O)n3C)c1`: the Motility in test [1], in test [2], in test [3] and in test [4] was 100% throughout.
For `CCOc1ccccc1CN1CCc2nc3cc(C(C)(C)C)nn3c(O)c2C1`, the Motility in test [1], in test [2], in test [3] and in test [4] was 100% in each case.
In the case of `Cc1cc(N2CCCC2)nc(Nc2ccc(NC(=O)CCc3ccccc3)cc2)n1`, the Motility in test [1] turned out to be 100%; in test [2], 66.66%; in test [3] it was 13.33%; in test [4], 100%.
In the case of `CN1CCN(c2ncnc3c2[nH]c2ccc(Cl)cc23)CC1`, the Motility in test [1], in test [2], in test [3] and in test [4] was 100% each time.
On to `O=C1c2ccccc2-c2nnc(-c3ccc(Br)cc3)cc21`, for which the Motility in test [1], in test [2], in test [3] and in test [4] was 100% in each case.
As to `CN(C)CCNc1cc(-c2ccccc2)nc2ccccc12`, the Motility in test [1], in test [2], in test [3] and in test [4] was 100% each time.
For the molecule `Cc1nc2ccccc2c(O)c1CC=C(Cl)Cl`, the Motility in test [1], in test [2], in test [3] and in test [4] was 100% each time.
Turning to `COc1ccc2nc(C)cc(Nc3cccc(O)c3)c2c1.Cl`, the Motility in test [1], in test [2], in test [3] and in test [4] was 100% in each case.
As for `CN(C)CCCNCc1ccc(-c2ccc(F)c(Cl)c2)o1.Cl`, the Motility in test [1], in test [2], in test [3] and in test [4] was 100% in each case.
`O=c1nc(C=Cc2ccc(Br)cc2)oc2ccccc12`: the Motility in test [1], in test [2], in test [3] and in test [4] was 100% throughout.
As for `COc1ccc2nc(N)nc(C)c2c1`, the Motility in test [1], in test [2], in test [3] and in test [4] was 100% in each case.
Consider `CC(=O)c1ccc(NC(=O)CSc2nc(-c3ccccc3Cl)ns2)cc1`, for which the Motility in test [1], in test [2], in test [3] and in test [4] was 100% in each case.
`COc1ccc(C(=O)NC(c2ccc(Cl)cc2Cl)c2cc(Cl)c3cccnc3c2O)cc1` (stereo not drawn): the Motility in test [1], in test [2], in test [3] and in test [4] was 100% in each case.
On to `CCC(=O)Nc1nnc(Cc2ccc(OC)c(OC)c2)s1`, for which the Motility in test [1], in test [2], in test [3] and in test [4] was 100% in each case.
As to `O=C(NCCCN1CCC(N2CCCCC2)CC1)C1=Cc2cc(Br)ccc2OC1`, the Motility in test [1], in test [2], in test [3] and in test [4] was 100% in each case.
On to `Cc1ccc(OCCCCCCNCCO)c(C)c1`, for which the Motility in test [1], in test [2], in test [3] and in test [4] was 100% each time.
With `COc1cccc(C(=O)Nc2ccc(-c3nc4ccccc4[nH]3)cc2)c1`, the Motility in test [1], in test [2], in test [3] and in test [4] was 100% throughout.
With `CCOC(=O)c1cnc2ccc(Cl)cc2c1NCCCN(C)C`, the Motility in test [1], in test [2], in test [3] and in test [4] was 100% in each case.
As for `CCOc1ccccc1NC(=O)CN1CCN(C(=O)c2ccco2)CC1`, the Motility in test [1], in test [2], in test [3] and in test [4] was 100% each time.
In the case of `O=C1c2ccccc2C2=Nc3ccccc3SC(c3cccc(F)c3)C12` (stereo not drawn), the Motility in test [1], in test [2], in test [3] and in test [4] was 100% in each case.
As for `Cc1ccccc1OCCSc1nc2ccc(NC(=O)c3ccccc3)cc2s1`, the Motility in test [1], in test [2], in test [3] and in test [4] was 100% each time.
For `CC(C)(C)c1ccc(C(=O)Nc2c3c(nn2-c2cccc(Cl)c2)CSC3)cc1`, the Motility in test [1], in test [2], in test [3] and in test [4] was 100% throughout.
Regarding `CCOc1cc2c(cc1OCC)C(c1cc(Cl)c(O)c(OCC)c1)NCC2` (stereo not drawn), the Motility in test [1], in test [2], in test [3] and in test [4] was 100% in each case.
`COc1ccc(N2CCN(C(CNC(=O)CC(C)(C)C)c3ccc4c(c3)OCO4)CC2)cc1` (stereo not drawn): the Motility in test [1], in test [2], in test [3] and in test [4] was 100% in each case.
As for `CCCCCCn1c(=N)n(CC(O)COc2cccc(C)c2)c2ccccc21.Cl` (stereo not drawn), the Motility in test [1], in test [2], in test [3] and in test [4] was 100% in each case.
As for `O=C(O)C(=O)O.Oc1ccc(Br)cc1CN1CCN(Cc2cccc(F)c2)CC1`, the Motility in test [1], in test [2], in test [3] and in test [4] was 100% throughout.
On to `CCOC(=O)C1(Cc2ccccc2)CCN(Cc2cccc(OC)c2O)CC1`, for which the Motility in test [1], in test [2], in test [3] and in test [4] was 100% throughout.
For `Oc1ccc(C(=C(Cl)Cl)c2ccc(O)cc2)cc1`, the Motility in test [1], in test [2], in test [3] and in test [4] was 100% in each case.
Take `CC(C)(C)c1ccc2c(c1)CN(Cc1ccc(Cl)cc1)CO2`: the Motility in test [1], in test [2], in test [3] and in test [4] was 100% throughout.
Take `COc1ccc(OC)c(C2C3=C(CC(C)(C)CC3=O)N(c3ccc(Cl)c(Cl)c3)C3=C2C(=O)CC(C)(C)C3)c1`: the Motility in test [1], in test [2], in test [3] and in test [4] was 100% throughout.
As to `COc1ccc(CN2CCN(Cc3ccccc3)CC2)c(O)c1`, the Motility in test [1], in test [2], in test [3] and in test [4] was 100% each time.
In the case of `Oc1c(CN2CCN(c3ccccc3F)CC2)cc(Br)c2cccnc12`, the Motility in test [1] was 100%; in test [2], 100%; in test [3] it was 66.66%; in test [4] it was 100%.
As for `Cl.OC(CNCc1ccccc1)Cn1c2ccccc2c2ccccc21` (stereo not drawn), the Motility in test [1], in test [2], in test [3] and in test [4] was 100% in each case.
`OC1CCCCC1C1(NC(=S)Nc2ccccc2)CCCCC1` (stereo not drawn): the Motility in test [1], in test [2], in test [3] and in test [4] was 100% throughout.
On to `OC1=C2C(=Nc3ccccc3SC2c2ccc(Br)cc2)c2ccccc21` (stereo not drawn), for which the Motility in test [1], in test [2], in test [3] and in test [4] was 100% each time.
In the case of `Clc1ccc2c(N3CCCC3)ccnc2c1`, the Motility in test [1], in test [2], in test [3] and in test [4] was 100% throughout.
On to `COc1ccc(C(=O)C2CC2c2ccc(Cl)cc2)cc1` (stereo not drawn), for which the Motility in test [1], in test [2], in test [3] and in test [4] was 100% throughout.
Regarding `CCCCCn1c(=N)n(CC(O)COc2cccc(C)c2)c2ccccc21.Cl` (stereo not drawn), the Motility in test [1], in test [2], in test [3] and in test [4] was 100% each time.
With `O=c1c2c([nH]c3ccccc13)CCCC2`, the Motility in test [1], in test [2], in test [3] and in test [4] was 100% in each case.
Turning to `CCN1CCN(c2c(C(=O)c3ccccc3)cnc3cc(OC)c(OC)cc23)CC1`, the Motility in test [1], in test [2], in test [3] and in test [4] was 100% in each case.
As for `Cc1ccc(S(=O)(=O)c2c(COC(=O)c3cccc(C)c3)c(-c3ccccc3)nn2C)cc1`, the Motility in test [1], in test [2], in test [3] and in test [4] was 100% each time.
Take `CCCCN(CCCC)S(=O)(=O)c1ccc(NC(=O)c2ccco2)cc1`: the Motility in test [1], in test [2], in test [3] and in test [4] was 100% in each case.
